# ChEMBL document CHEMBL1201862, “PubChem BioAssay data set” (2004)
#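 The compound was tested at five concentrations on cells cultured in 96-well plates, with a 48-hour exposure period. At the GI50, growth is halved.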 Activity calls are given as the source filed them. Cut-off read from the data, not from the text of the source: active = GI50 up to about 1.1 µM and inactive = higher.
# Assays:
# Assay in all cases: growth of human tumour cells (NCI), 48 h
# 786-0 = test system: 786-0
# A498 = test system: A498
# A549 = test system: A549
# ACHN = test system: ACHN
# CAKI-1 = test system: CAKI-1
# CCRF-CEM = test system: CCRF-CEM
# COLO 205 = test system: COLO 205
# DLD-1 = test system: DLD-1
# DMS-114 = test system: DMS-114
# DMS-273 = test system: DMS-273
# EKVX = test system: EKVX
# HCC 2998 = test system: HCC 2998
# HCT-116 = test system: HCT-116
# HCT-15 = test system: HCT-15
# HL-60 = test system: HL-60
# HOP-18 = test system: HOP-18
# HOP-62 = test system: HOP-62
# HOP-92 = test system: HOP-92
# HT-29 = test system: HT-29
# IGROV-1 = test system: IGROV-1
# K562 = test system: K562
# KM-20L2 = test system: KM-20L2
# KM12 = test system: KM12
# LOX IMVI = test system: LOX IMVI
# LXFL 529 = test system: LXFL 529
# M14 = test system: M14
# M19-MEL = test system: M19-MEL
# Malme-3M = test system: Malme-3M
# NCI-H226 = test system: NCI-H226
# NCI-H23 = test system: NCI-H23
# NCI-H460 = test system: NCI-H460
# NCI-H522 = test system: NCI-H522
# OVCAR-3 = test system: OVCAR-3
# OVCAR-4 = test system: OVCAR-4
# OVCAR-5 = test system: OVCAR-5
# OVCAR-8 = test system: OVCAR-8
# RXF 393 = test system: RXF 393
# SF-268 = test system: SF-268
# SF-295 = test system: SF-295
# SF-539 = test system: SF-539
# SK-MEL-28 = test system: SK-MEL-28
# SK-MEL-2 = test system: SK-MEL-2
# SK-MEL-5 = test system: SK-MEL-5
# SK-OV-3 = test system: SK-OV-3
# SN12C = test system: SN12C
# SNB-19 = test system: SNB-19
# SNB-75 = test system: SNB-75
# SNB-78 = test system: SNB-78
# SW-620 = test system: SW-620
# TK-10 = test system: TK-10
# U-251 = test system: U-251
# UACC-257 = test system: UACC-257
# UACC-62 = test system: UACC-62
# UO-31 = test system: UO-31
# XF498 = test system: XF498
# SR = test system: SR
smiles,measurement,setting,value
ON=C1CCC(c2ccccc2)CC1 (configuration not stated),GI50,786-0,> 100 µM (inactive)
same,GI50,A498,> 100 µM (inactive)
same,GI50,A549,> 100 µM (inactive)
same,GI50,ACHN,> 100 µM (inactive)
same,GI50,CAKI-1,> 100 µM (inactive)
same,GI50,CCRF-CEM,> 100 µM (inactive)
same,GI50,COLO 205,> 100 µM (inactive)
same,GI50,DLD-1,> 100 µM (inactive)
same,GI50,DMS-114,> 100 µM (inactive)
same,GI50,DMS-273,> 100 µM (inactive)
same,GI50,EKVX,> 100 µM (inactive)
same,GI50,HCC 2998,> 100 µM (inactive)
same,GI50,HCT-116,> 100 µM (inactive)
same,GI50,HCT-15,> 100 µM
same,GI50,HL-60,> 100 µM (inactive)
same,GI50,HOP-18,> 100 µM (inactive)
same,GI50,HOP-62,> 100 µM (inactive)
same,GI50,HOP-92,> 100 µM (inactive)
same,GI50,HT-29,> 100 µM (inactive)
same,GI50,IGROV-1,> 100 µM (inactive)
same,GI50,K562,> 100 µM (inactive)
same,GI50,KM-20L2,> 100 µM (inactive)
same,GI50,KM12,> 100 µM (inactive)
same,GI50,LOX IMVI,> 100 µM (inactive)
same,GI50,LXFL 529,> 100 µM (inactive)
same,GI50,M14,> 100 µM (inactive)
same,GI50,M19-MEL,> 100 µM (inactive)
same,GI50,Malme-3M,> 100 µM (inactive)
same,GI50,NCI-H226,> 100 µM (inactive)
same,GI50,NCI-H23,> 100 µM (inactive)
same,GI50,NCI-H460,> 100 µM (inactive)
same,GI50,NCI-H522,> 100 µM (inactive)
same,GI50,OVCAR-3,> 100 µM (inactive)
same,GI50,OVCAR-4,> 100 µM (inactive)
same,GI50,OVCAR-5,> 100 µM (inactive)
same,GI50,OVCAR-8,> 100 µM (inactive)
same,GI50,RXF 393,> 100 µM (inactive)
same,GI50,SF-268,> 100 µM (inactive)
same,GI50,SF-295,> 100 µM (inactive)
same,GI50,SF-539,> 100 µM (inactive)
same,GI50,SK-MEL-28,> 100 µM (inactive)
same,GI50,SK-MEL-2,> 100 µM (inactive)
same,GI50,SK-MEL-5,> 100 µM (inactive)
same,GI50,SK-OV-3,> 100 µM (inactive)
same,GI50,SN12C,> 100 µM (inactive)
same,GI50,SNB-19,> 100 µM (inactive)
same,GI50,SNB-75,> 100 µM (inactive)
same,GI50,SNB-78,> 100 µM (inactive)
same,GI50,SW-620,> 100 µM (inactive)
same,GI50,TK-10,> 100 µM (inactive)
same,GI50,U-251,> 100 µM (inactive)
same,GI50,UACC-257,> 100 µM (inactive)
same,GI50,UACC-62,> 100 µM (inactive)
same,GI50,UO-31,> 100 µM (inactive)
same,GI50,XF498,> 100 µM (inactive)
C=C1C(=O)OC2C[C@@]3(C)CCCC(=C)C3CC12 (some centres not stated),GI50,A498,6.89 µM (inactive)
same,GI50,A549,12.2 µM (inactive)
same,GI50,ACHN,14 µM (inactive)
same,GI50,CAKI-1,6.62 µM (inactive)
same,GI50,CCRF-CEM,> 100 µM (inactive)
same,GI50,COLO 205,2.93 µM (inactive)
same,GI50,DLD-1,3.49 µM (inactive)
same,GI50,DMS-114,16.2 µM (inactive)
same,GI50,DMS-273,2.54 µM (inactive)
same,GI50,EKVX,17.1 µM (inactive)
same,GI50,HCC 2998,13.6 µM (inactive)
same,GI50,HCT-116,4.05 µM (inactive)
same,GI50,HCT-15,10.9 µM
same,GI50,HOP-18,17.5 µM (inactive)
same,GI50,HOP-62,20.5 µM (inactive)
same,GI50,HOP-92,4.26 µM (inactive)
same,GI50,HT-29,7.14 µM (inactive)
same,GI50,IGROV-1,19 µM (inactive)
same,GI50,KM-20L2,12.2 µM (inactive)
same,GI50,KM12,2.24 µM (inactive)
same,GI50,LOX IMVI,1.22 µM (inactive)
same,GI50,LXFL 529,3.2 µM (inactive)
same,GI50,M14,6.34 µM (inactive)
same,GI50,Malme-3M,3.52 µM (inactive)
same,GI50,NCI-H226,12.9 µM (inactive)
same,GI50,NCI-H23,13.7 µM (inactive)
same,GI50,NCI-H460,4.68 µM (inactive)
same,GI50,NCI-H522,1.9 µM (inactive)
same,GI50,OVCAR-3,10.4 µM (inactive)
same,GI50,OVCAR-4,13.4 µM (inactive)
same,GI50,OVCAR-5,19.5 µM (inactive)
same,GI50,OVCAR-8,11.7 µM (inactive)
same,GI50,RXF 393,2.77 µM (inactive)
same,GI50,SF-268,12.9 µM (inactive)
same,GI50,SF-295,11.4 µM (inactive)
same,GI50,SF-539,1.95 µM (inactive)
same,GI50,SK-MEL-28,11.7 µM (inactive)
same,GI50,SK-MEL-2,3.91 µM (inactive)
same,GI50,SK-MEL-5,7.64 µM (inactive)
same,GI50,SK-OV-3,19.5 µM (inactive)
same,GI50,SN12C,4.44 µM (inactive)
same,GI50,SNB-19,11.2 µM (inactive)
same,GI50,SNB-75,7.23 µM (inactive)
same,GI50,SNB-78,3.27 µM (inactive)
same,GI50,SR,> 100 µM (inactive)
same,GI50,SW-620,3.92 µM (inactive)
same,GI50,TK-10,11.4 µM (inactive)
same,GI50,U-251,10.1 µM (inactive)
same,GI50,UACC-257,10.3 µM (inactive)
same,GI50,UACC-62,5.56 µM (inactive)
same,GI50,UO-31,4.98 µM (inactive)
same,GI50,XF498,3.69 µM (inactive)
